“And” between values parts separate entries of the source, which are not always exact repeats. Identical values can stand only once. Bridge positions count the residues as written; N and C are the ends. Square brackets hold non-standard residues; d marks the D form. Peptide text beside a SMILES is read from it. ξ: configuration not given here. d2Nal = N[C@H](Cc1ccc2ccccc2c1)C(=O)O; Thr(3ξ) = CC(O)[C@H](N)C(=O)O
Key:
[1] = Rheology of solutions/gels of the octapeptides (oscillatory, cone/plane rheometer); format: physicochemical; conditions: 25° C.
Protocol: The viscous and viscoelastic properties of the solutions/gels of the compounds according to the invention can be studied by rheology according to the operating methods described hereafter.
The measurements are in general carried out using a rheometer of “Control Stress Haake 600” type (Haake, Germany) equipped with a cone/plane measurement geometry, with a cone 20 mm in diameter, an angle of 1 degree and an air gap of 52 microns. The measurement temperature is fixed at 25° C. +/−0.2° C. using a thermostatically-controlled bath but can be adjusted if necessary.
Two complementary types of tests are carried out, on the one hand measurements in static mode and on the other hand measurements in dynamic mode (oscillatory rheology); both are briefly described hereafter. […]
For the dynamic measurements, a shear strain (γ0) […] of sinusoidal type, of known amplitude and frequency is applied to the sample. The resultant sinusoidal shear stress is measured (amplitude τ0). […] In this case, the sine curves recorded for the shear strain and the shear stress having a phase angle difference δ. The values of τ0, γ0 and δ make it possible to access the viscoelastic parameters:
The storage modulus (also called elastic modulus) is a measurement of the elastic energy stored (or restored) per unit volume, whilst the loss modulus is a measurement of the energy dissipated per unit volume. These moduli must be calculated in the linear viscoelastic region (i.e. experimental conditions for which these moduli are independent of the amplitude of the shear stress (strain)). These experimental conditions are in general determined by a so-called “stress sweep” experiment which consists of a measurement of the elastic modulus and the loss modulus as a function of the amplitude of the deformation imposed (for a given frequency, typically 1Hz). In general, in the case of small deformations, G′ and G″ vary very little with the deformation. Then, on passing the yield point, a strong reduction in G′ and a maximum of G″ is observed. This transition delimits the linear viscoelasticity region. When the linear viscoelasticity region is known, other tests can be carried out such as “frequency sweep” measurements consisting of measuring the dependence of G′ and G″ as a function of shear frequency at a fixed deformation amplitude, comprised in the linear viscoelasticity region.
The critical deformation is the deformation from which the elastic modulus dependent on the deformation applied at a constant frequency. For higher deformations, the material looses its viscoelastic properties and tends to become more viscous than elastic. […]

[2] = Self-assembly study: putting peptides in solution in water, macroscopic, ATR-FTIR, TEM and SAXS analysis; format: physicochemical; conditions: 3 to 15% by mass of peptide in water; form and diameter of the self-assembled structure, or soluble / insoluble
Description: The procedure used comprises three stages: putting the peptides in solution and macroscopic analysis; spectroscopic and microscopic analyses of the structures formed and by small-angle X-ray scattering (SAXS) analyses.
The first stage of the characterization of the derivatives is the production of a range of concentrations from 3 to 15% by mass of peptide in water. Gelling of the solution indicates the presence of self-assembled structures which can be nanotubes but can also be fibres or other self-organised structures.
The object of this stage is to verify the presence of self-assembled structures, to characterize their self-assembly and to visualize them by microscopy.
Infrared spectroscopy makes it possible to obtain information on the method of stacking the peptides in the self-assemblies. The amide band spectrum, reflecting the absorption spectra of the carbonyl functions of the peptide backbone, gives information on the type of hydrogen bond in which these groups are involved (H bonds leading to the formation of the […], a helix or also a loop or random conformation) and consequently on the secondary and tertiary structure of the peptides in solution and self-assembled. The attenuated total reflection technique (ATR-FTIR) uses a crystal on which the solid or liquid sample is deposited. The infrared light is guided through this crystal at an angle which allows it to be reflected several times inside the crystal, which increases the sensitivity of the technique. Due to the performance of this device, it is then possible perform measurements on relatively dilute solutions. The beam penetrates a few microns into the sample deposited on the crystal, which means that only the molecules/structures which are deposited on the surface of the crystal are analyzed. Moreover, this technique is non-destructive.
The assembled structures are then visualized by transmission electron microscopy (TEM). This very powerful technique, allowing magnifications greater than 500,000 times, is one of the few techniques capable of visualizing structures on the nanometric scale. The sample is subjected to an electron beam. The visualization of the transmitted beam is produced either by a photoluminescent screen, or by a CCD camera. The sample in the microscope being under vacuum, it is samples dried after staining with uranyl salts in order to increase contrast which are observed.
The peptide in solution is firstly deposited on a copper grid covered with a film of carbon. After deposition of the materiel, the excess liquid is eliminated. In the same way, the solution of colorant, in our case uranyl acetate, is deposited on the grid, the excess is eliminated and the grid is dried in the open air. It can then be introduced into the microscope.
The samples, liquids or gels, are introduced into a capillary column and subjected to a monochromatic flow of X-rays. The intensity diffused is measured as a function of the scattering angle with respect to the incident angle.
The diffusion patterns thus obtained must be the subject of a correlation with a close theoretical model of the structures present in the sample. In the case where the peptides have self-assembled in the form of hollow nanotubes, the modelling of the experimental data with the theoretical diffusion produced by infinitely long hollow columns makes it possible to determine with precision the diameter of the columns and to estimate their wall thickness (Valery et al. in Biophysical journal, 2004, 86(4), 2484-2501 and Proc. Natl. Acad. Sci., 2003, 100(18) 10258-10262). For polydisperse, nanotubular, fibrilar, micellar or lamellar self-assemblies, it is the correlation of the spectroscopic, microscopic and XR scattering data which makes it possible to estimate a size range for the objects observed.

Critical deformation rheology ([1]; 75 mM)	Storage modulus rheology ([1]; 75 mM)	Critical deformation rheology ([1]; 226 mM)	Storage modulus rheology ([1]; 226 mM)	Structure (SMILES)	Assembly [2]
5000 Pa	643,500 Pa	8500 Pa	>2,700,000 Pa	CC(C)[C@@H]1NC(=O)[C@H](CCCCN)NC(=O)[C@@H](Cc2cccc3ccccc23)NC(=O)[C@H](Cc2ccc(O)cc2)NC(=O)[C@@H](NC(=O)[C@H](N)Cc2ccc3ccccc3c2)CSSC[C@@H](C(=O)N[C@H](C(N)=O)C(C)O)NC1=O (stereo partly drawn) [Example 6, H-D-2-Nal^1-cyclo(Cys^2Tyr^3-13-(1-naphthyl)-D-Ala^4-Lys^5-Val^6-Cys^7)-Thr^8-NH2.2 CH3COOH]	monodisperse peptide nanotubes and 35 nm monodisperse nanotube
800 Pa	184,000 Pa	18,600 Pa	>2,700,000 Pa	CC(C)[C@@H]1NC(=O)[C@H](CCCCN)NC(=O)[C@@H](C)NC(=O)[C@H](Cc2ccc(O)cc2)NC(=O)[C@@H](NC(=O)[C@H](N)Cc2ccc3ccccc3c2)CSSC[C@@H](C(=O)N[C@H](C(N)=O)C(C)O)NC1=O (stereo partly drawn) [Example 4, H-D-2-Nal^1-cyclo(Cys^2Tyr^3-D-Ala^4-Lys^5-Val^6Cys^7)-Thr^8-NH2.2 CH3COOH] (H-[d2Nal]CY[dA]KVC[Thr(3ξ)]-NH2; disulfide 2-7)	self-assembled fibres
Viscosity	Viscosity	360 Pa	150,000 Pa	CC(C)[C@@H]1NC(=O)[C@H](CCCCN)NC(=O)[C@@H](Cc2c[nH]cn2)NC(=O)[C@H](Cc2ccc(O)cc2)NC(=O)[C@@H](NC(=O)[C@H](N)Cc2ccc3ccccc3c2)CSSC[C@@H](C(=O)N[C@H](C(N)=O)C(C)O)NC1=O (stereo partly drawn) [Example 3, H-D-2-Nal^1-cyclo(Cys^2-Tyr^3-D-His^4-Lys^5-Val^6-Cys^7)-Thr^8-NH2.2 CH3COOH] (H-[d2Nal]CY[dH]KVC[Thr(3ξ)]-NH2; disulfide 2-7)	monodisperse peptide nanotubes and 9.3 nm monodisperse nanotube

Reference: US9382306B2, “Octapeptide compounds derived from somatostatin and the therapeutic use thereof” (IPSEN PHARMA S.A.S., priority 2008, dated 2016)
